Data as given in US9364474B2, “Method for treatment of neurologic dysfunction” (MedDEV, Inc., priority 2004, dated 2016).
“Also recorded” adds a separate entry of the source. Read-outs that look alike come from different tables or passages of the source.

What was measured:
[1] = tested on: patient suffering from depression
Description: The treatment composition is suitably applied in a single daily dose, e.g., 0.01 mg of the MAO-A agonist in 0.05 ml of transdermal cream applied once every morning. Caffeine may also be included in the composition to compensate for the anti-hypertensive effect of the preferred reserpine; the caffeine may suitably be included in an amount from about 50-100 mg/dose.
Treatment was in the form of 0.01 mg of reserpine per 0.05 ml of transdermal cream, applied transdermally once a day in the morning.
The treatment consisted of 0.01 mg of reserpine per 0.05 ml of cream, applied transdermally by rubbing the cream into the skin once a day in the morning.
The treatment consisted of 0.01 mg of the reserpine per 0.05 ml of cream, applied transdermally by rubbing the cream into the skin once a day in the morning.
The patient discontinued the use of nortriptyline and the same day started the treatment of the present invention, using 0.01 mg of the reserpine per 0.05 ml cream, applied transdermally by rubbing the cream into the skin once a day in the morning.
The patient then started the treatment of the present invention, using 0.01 mg of the MAO-A activity stimulator (reserpine) per 0.05 ml cream, applied transdermally by rubbing the cream into the skin once a day in the morning.

[2] = tested on: patient with Autism; experiment: Case examples: patients with Autism (ASD), transdermal reserpine (with prior medication history); format: in vivo, human; conditions: for outcome of prior reserpine treatment: reserpine 0.01 mg/day
Description: The treatment composition is suitably applied in a single daily dose, e.g., 0.01 mg of the MAO-A agonist in 0.05 ml of spray solution applied once every morning.
Prior to administration of the present invention (transdermal reserpine), the patient's parents were provided with an informed consent documenting the potential risks, benefits and alternatives to this treatment. The patient was started on a dose of Reserpine at a 4× dilution resulting in a total dose of 0.01 mg. […] They were also given approximately 1400 mg of Calcium every morning.

[3] = tested on: resting and evoked activity of the brain of patient with Autism; experiment: Quantitative Electroencephalogram (qEEG, Neuroguide 2.5) in ASD patient; format: in vivo, human; conditions: ASD Example One
Description: In a paper by Thatcher et al, an Autistic signature was reported. […] Analysis was conducted using Neuroguide 2.5, a widely accepted and statistically valid instrument (Thatcher et al, 2003).

[4] = tested on: patient diagnosed with chronic schizophrenia; experiment: Case example: patient with chronic schizophrenia, transdermal reserpine spray (with prior medication history); format: in vivo, human
[5] = in the human body; cited from earlier work
[6] = tested on: MAO-A; conditions: Youdim & Sandler (1968); cited from earlier work
[7] = tested on: aldehyde dehydrogenase; conditions: literature; cited from earlier work
[8] = tested on: Autistic children; conditions: cited from earlier work
[9] = tested on: schizophrenic patients; conditions: Shepherd and Watt 1956; 0.75 mg per day; cited from earlier work
[10] = ASD Example Three, 0.01 mg per day
[11] = ASD Example Three, continued 0.01 mg per day
[12] = ASD Example Two, 0.01 mg per day
[13] = Schizophrenia Example One, first day
[14] = Schizophrenia Example One, fourth day
[15] = Schizophrenia Example One, next 2 days

SMILES: COC(=O)[C@H]1[C@H]2C[C@@H]3c4[nH]c5cc(OC)ccc5c4CCN3C[C@H]2C[C@@H](OC(=O)c2cc(OC)c(OC)c(OC)c2)[C@@H]1OC [reserpine]
- effect on symptoms of depression ([1]; Depression Example Five, 0.002 mg, other symptoms persisted): alleviation of their symptoms of feeling hopelessness and “doom and gloom”
- effect on symptoms of depression ([1]; Depression Example Five, 0.004 mg, third day, fatigue and insomnia still experienced): improvement in their emotions
- effect on symptoms of depression ([1]; Depression Example Five, 0.006 mg per day): all of the patient's symptoms of depression were successfully alleviated
- return of symptoms on long-term treatment ([1]; Depression Example Five, eight consecutive months, 0.006 mg per day transdermally): no return of the symptoms of depression
- time to resolution of fatigue and loss of energy after first dose ([1]; Depression Example Four: person, 0.01 mg of reserpine per 0.05 ml cream transdermally once a day, nortriptyline discontinued): one
- outcome after dose increase during stressful event ([1]; Depression Example Four, 0.02 mg for one week): insomnia and fatigue resolved
- return of symptoms on long-term treatment ([1]; Depression Example Four, 10 months of consecutive daily treatment, 0.01 mg): no return of the symptoms listed above
- outcome after return to the lower dose ([1]; Depression Example Four, returned to 0.01 mg dose): no return of any symptoms of depression
- time to significant improvement in state of mind after first application ([1]; Depression Example One: 250-pound person, 0.01 mg of reserpine per 0.05 ml of transdermal cream once a day): four
- weight lost during the treatment ([1]; Depression Example One, 0.01 mg transdermal once a day): > 20 pounds
- status of prior symptoms of depression on continued treatment ([1]; Depression Example One, 0.01 mg transdermal, consecutive 24-hour dosing regimen): remains free of all of the prior symptoms
- time from last dose to beginning return of symptoms ([1]; Depression Example One, dose forgotten for a day): about 32 hours
- time to freedom from all symptoms after applying the missed dose ([1]; Depression Example One, dose missed for 72 hours): one
- marijuana use during the treatment ([1]; Depression Example Three): has not used any marijuana during the treatment
- time to resolution of pessimism and negative mood aspects after first dose ([1]; Depression Example Three: 220-pound person, depression and substance abuse, 0.01 mg of reserpine per 0.05 ml of cream transdermally once a day): two
- cravings for substances of abuse ([1]; Depression Example Three, after first dose 0.01 mg): no cravings for marijuana or alcohol
- outcome after dose decrease ([1]; Depression Example Three, dose decreased to 0.0075 mg of reserpine): symptoms resolved that same day
- weight lost ([1]; Depression Example Three, first 60 days): five
- weight loss after resuming the treatment ([1]; Depression Example Two): 1-2 pound per week
- time to increased energy after applying the dose ([1]; Depression Example Two: 175-pound person, 0.01 mg of reserpine per 0.05 ml of cream transdermally once a day): one
- time to resolution of all perceptible symptoms after first application (except slight problems with memory) ([1]; Depression Example Two, 0.01 mg transdermal): ≤ 10 h
- return of symptoms during treatment ([1]; Depression Example Two, 30 consecutive days): no return of their symptoms
- time to resolution of symptoms after resuming the treatment ([1]; Depression Example Two, after 10 day interruption): one
- total weight lost ([1]; Depression Example Two, first 50 days): 15 pounds
- symptoms during interruption of treatment ([1]; Depression Example Two, treatment interrupted for 10 days): all of the symptoms returned
- time to improvement or resolution of symptoms after first application ([1]; each of the depression examples): 1 to 4 h
- course of headache after dose reduction ([1]; human, in vivo): resolved immediately
- effect of too high a dose ([1]; human, in vivo): undesirable increase in the symptoms of depression
- negative side effects ([1]; human, in vivo): no significant negative side effects
- side effect at starting dose ([1]; human, in vivo): headache that did not resolve spontaneously the first day
- effect of starting dose ([2]; ASD Example One: person, transdermal, total dose of 0.01 mg): some increased hyperactivity
- motor hyperactivity ([2]; ASD Example One, 0.005 mg): mild increase in motor hyperactivity
- temper outbursts during the course of treatment ([2]; ASD Example One, 0.005 mg, no quetiapine administration needed): no temper outbursts
- anxiety ([2]; ASD Example One, after three weeks of treatment): markedly decreased amount of anxiety
- social interactions, language and attention ([2]; ASD Example One, after three weeks, reduced dose 0.005 mg transdermal): significant improvements in their social interactions, language, and attention; also recorded: started using several meaningful sentences in succession
- “stimming” (banging of the plastic sticks) ([2]; ASD Example Three: person, transdermal reserpine 0.01 mg per day, immediately): reduced to only infrequent occurrence
- speech after 2 months ([2]; ASD Example Three, 0.01 mg): shouted out very clearly the words, “I'm hungry”
- behavior by the second day of administration [2, 10]: left their clothes on without supervision
- social response and language comprehension (parents' report) [2, 10]: will now look at them and smile when spoken to and appears to understand language better
- speech within the first 30 days [2, 10]: started making some new speech sounds
- continued course [2, 11]: subtle slow improvements in social behavior, speech, attention span, and awareness and interaction with their environment
- side effects [2, 11]: without any side effects
- attention span ([2]; ASD Example Two: person, transdermal reserpine 0.01 mg per day, immediately): increase attention span
- affectionate behavior [2, 12]: become more affectionate toward their parents and grandparents
- speech [2, 12]: all of their speech is clear and comprehensible
- time they could stay focused on a task [2, 12]: ≥ 30 min
- effect of increased dose ([2]; ASD Example Two, 0.015 mg per day, off gluten free diet): very hyperactive and aggressive
- outcome after dose decreased back ([2]; ASD Example Two, back to 0.01 mg per day, off gluten free diet): maintained their improvements in speech, social behavior, and attention span
- outcome of prior reserpine treatment ([2]; Homeopathic Example One: person): Substantial improvements
- outcome of prior reserpine treatment ([2]; Homeopathic Example Two: person): substantial improvement
- urinary calcium excretion ([2]; as a result of reserpine administration): increase in the amount of calcium excreted in the urine
- change in quantitative Electroencephalogram ([3]; after three weeks of treatment (FIG. 5)): significant change in their quantitative Electroencephalogram
- High Beta activity in qEEG ([3]; increased after starting HBOT, after starting transdermal reserpine): appears to subside
- side effects after first application ([4]; Schizophrenia Example One: person, transdermal reserpine via metered sprayer on forearm, Abilify stopped the day before): feeling severely depressed; also recorded: rapid heart rate, and anxiety
- time to onset of feeling severely depressed after rubbing the spray into skin ([4]; Schizophrenia Example One, first application): ≤ 30 s
- effect on symptoms of schizophrenia (report) [4, 13]: more focused, they had clearer thoughts
- time to resolution of side effect symptoms after applying the spray [4, 13]: 2 to 3 h
- side effects [4, 14]: none of these side effect symptoms occurred
- task completion [4, 14]: completed a list of chores that they gave them without supervision
- severity of returning side effects [4, 15]: slightly less severe
- time to resolution of side effect symptoms after applying the dose [4, 15]: ≤ 2 h
- behavior when required calcium was not taken ([4]; Schizophrenia Example One, sixth day, 2,000 mg calcium omitted): became very aggressive
- effect on blood calcium without additional calcium ([4]; without taking additional calcium daily): can cause hypocalcemia
- therapeutic half-life [5]: 33 h
- effect on MAO-A [6]: activate MAO-A
- effect on aldehyde dehydrogenase [7]: inhibit aldehyde dehydrogenase
- average optimum dose ([8]; Lehman et al 1957, oral): 5 mg per day
- optimum dose ([8]; Lehman et al 1957, oral, improvements only within this range, per day): 3 to 7 mg
- effectiveness in autism ([8]; Macready 2001, doses of 0.25-1.8 mg/day): may be effective in autism
- effect of low dose in schizophrenia [9]: resembling more an inert substance than the drug
